From PubChem BioAssay (NCI) come the findings set out here.

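Exposure lasted 48 hours, with cells grown in 96-well plates and compounds tested at five concentrations. GI50 is the concentration that inhibits growth by half. The concentration for full growth arrest is given as TGI.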

Among the test systems are SK-MEL-28 melanoma; SK-MEL-2 melanoma; NCI-H522 lung; RXF 393 renal; MOLT-4 leukemia; SF-268 CNS; NCI-H23 lung; SW-620 colon; HCC-2998 colon; HOP-62 NSCLC.
Holding throughout (experiment): NCI tumour cell line growth inhibition, 48 h

Take `COC(=O)Oc1nn(C(=O)OC)c(=O)c2ccccc12` (tested in a mixture with another compound): the TGI in the assay on SK-MEL-28 melanoma, in the assay with SK-MEL-2 melanoma, in the assay on NCI-H522 lung, in the assay with RXF 393 renal, in the assay on MOLT-4 leukemia and with SF-268 CNS was > 100 µM in each case. The TGI with NCI-H23 lung, in the assay on SW-620 colon, in the assay with HCC-2998 colon and in the assay on HOP-62 NSCLC was > 100 µM in each case.
As for `Nc1nccc(C#Cc2cncnc2Nc2ccc(OCc3cccc(F)c3)c(Cl)c2)n1`, the GI50 in the assay on SK-MEL-28 melanoma is 4.57 µM; in the assay on SK-MEL-2 melanoma, 4.98 µM; in the assay on NCI-H522 lung it was 2.23 µM; in the assay with RXF 393 renal, 4.02 µM; in the assay with MOLT-4 leukemia, 5.69 µM; in the assay with SF-268 CNS it was 4.5 µM. In addition, the GI50 in the assay on NCI-H23 lung is 4.22 µM; in the assay on SW-620 colon, 3 µM; with HCC-2998 colon, 4.1 µM; in the assay with HOP-62 NSCLC, 4.93 µM. Besides, the TGI in the assay with SK-MEL-28 melanoma was found to be 8.29 µM; with SK-MEL-2 melanoma, 9.34 µM; in the assay with NCI-H522 lung, 5.88 µM; with RXF 393 renal, 8.9 µM; with MOLT-4 leukemia it was 21.5 µM; in the assay with SF-268 CNS, 9.28 µM. Besides, the TGI with NCI-H23 lung was 8.92 µM; in the assay with SW-620 colon, 7.66 µM; with HCC-2998 colon, 7.55 µM; in the assay on HOP-62 NSCLC it was 9.17 µM.
With `CN(C)c1ccc(N=C(C#N)c2nc(N)nc(N3CCOCC3)n2)cc1`, the GI50 in the assay with SK-MEL-28 melanoma is 19.5 µM; with SK-MEL-2 melanoma it was > 100 µM; in the assay on NCI-H522 lung, 26.5 µM; with RXF 393 renal, 27.5 µM; in the assay with MOLT-4 leukemia it was 60.8 µM; in the assay on NCI-H23 lung, > 100 µM. The GI50 with SW-620 colon was > 100 µM; in the assay with HCC-2998 colon it was > 100 µM; in the assay with HOP-62 NSCLC, 55.2 µM. Also, the TGI is 48.4 µM in the assay with SK-MEL-28 melanoma; > 100 µM in the assay on SK-MEL-2 melanoma; > 100 µM in the assay on NCI-H522 lung; 70.1 µM in the assay with RXF 393 renal; > 100 µM in the assay with MOLT-4 leukemia; > 100 µM with NCI-H23 lung. For the same molecule, the TGI in the assay on SW-620 colon, in the assay on HCC-2998 colon and in the assay with HOP-62 NSCLC was > 100 µM throughout.
For `Cc1ccc(S(=O)(=O)OC(C=O)C(O)C(O)COC(c2ccccc2)(c2ccccc2)c2ccccc2)cc1` (stereo unspecified), the TGI in the assay with SK-MEL-28 melanoma was 35.9 µM; in the assay with SK-MEL-2 melanoma it was 29.9 µM; with NCI-H522 lung it was 26.3 µM; with RXF 393 renal, 30.3 µM; in the assay with MOLT-4 leukemia, 46.5 µM; with SF-268 CNS it was 35.2 µM. The TGI in the assay on SW-620 colon turned out to be 35.2 µM; in the assay on HCC-2998 colon it was 24.3 µM; with HOP-62 NSCLC, 30.8 µM.
Consider `CCOC(=O)/C(=C/c1c(-c2ccccc2)[nH]c2ccccc12)C(=O)c1ccc(Cl)cc1`, for which the GI50 in the assay with SK-MEL-28 melanoma is 5.26 µM; in the assay on SK-MEL-2 melanoma, 3.99 µM; with NCI-H522 lung it was 5.86 µM; in the assay with RXF 393 renal, 17.4 µM; with MOLT-4 leukemia, 2.57 µM; with SF-268 CNS, 6.06 µM. Besides, the GI50 is 3.47 µM in the assay on NCI-H23 lung, 4.53 µM in the assay on SW-620 colon, 3.94 µM with HCC-2998 colon and 4.59 µM in the assay with HOP-62 NSCLC. The TGI with SK-MEL-28 melanoma was > 100 µM; in the assay on SK-MEL-2 melanoma it was 47.5 µM; with NCI-H522 lung, > 100 µM; in the assay with RXF 393 renal, > 100 µM; in the assay with MOLT-4 leukemia, 8.21 µM; in the assay with SF-268 CNS, > 100 µM. The TGI with NCI-H23 lung, in the assay with SW-620 colon, in the assay with HCC-2998 colon and in the assay with HOP-62 NSCLC was > 100 µM in each case.
Turning to `CCN1N=CSC12C(=O)N(c1ccccc1)C(=O)N2c1ccccc1` (stereo unspecified), the TGI in the assay with SK-MEL-28 melanoma, in the assay on NCI-H522 lung, with RXF 393 renal, in the assay on MOLT-4 leukemia, with SF-268 CNS and with NCI-H23 lung was > 100 µM throughout. Besides, the TGI in the assay with SW-620 colon, with HCC-2998 colon and in the assay on HOP-62 NSCLC was > 100 µM each time.
Turning to `CC(=O)OCC1OC(n2cnc3c(I)nc(I)nc32)C(OC(C)=O)C1OC(C)=O` (stereo unspecified), the TGI with SK-MEL-28 melanoma stood at 28.5 µM; with SK-MEL-2 melanoma, 33 µM; with NCI-H522 lung, 3.53 µM; in the assay on RXF 393 renal, 38.3 µM; in the assay with MOLT-4 leukemia it was 24.8 µM; in the assay on SF-268 CNS, 28.5 µM. Further, the TGI with NCI-H23 lung stood at 16.7 µM; with SW-620 colon, 28.4 µM; in the assay on HCC-2998 colon it was 16.9 µM; in the assay with HOP-62 NSCLC, 34.4 µM.
For the molecule `CC[C@]12C=CCN3CC[C@]4(C(=C(C(=O)OC)C1)Nc1ccccc14)[C@@H]32`, the GI50 in the assay with SK-MEL-28 melanoma is 4.49 µM; with SK-MEL-2 melanoma, 4.45 µM; with NCI-H522 lung, 3.24 µM; in the assay with RXF 393 renal, 2.51 µM; with MOLT-4 leukemia it was 3.16 µM; with SF-268 CNS, 4.6 µM. Further, the GI50 with NCI-H23 lung is 4.37 µM; in the assay with SW-620 colon, 3.18 µM; in the assay on HCC-2998 colon it was 11.4 µM; in the assay with HOP-62 NSCLC, 9.78 µM. The TGI stood at 17.9 µM with SK-MEL-28 melanoma; 17.7 µM in the assay on SK-MEL-2 melanoma; 14.1 µM in the assay on NCI-H522 lung; 7.24 µM with RXF 393 renal; 14.7 µM in the assay on MOLT-4 leukemia; 19.3 µM with SF-268 CNS. Moreover, the TGI with NCI-H23 lung was found to be 17.7 µM; in the assay on SW-620 colon, 12.3 µM; in the assay with HCC-2998 colon it was 24.9 µM; in the assay on HOP-62 NSCLC, 28.4 µM.
For `S=c1nc(/C=C/c2ccc(Cl)c(Cl)c2)[nH][nH]1`, the TGI with SK-MEL-28 melanoma, in the assay with SK-MEL-2 melanoma, with NCI-H522 lung, with RXF 393 renal, in the assay on MOLT-4 leukemia and with SF-268 CNS was > 100 µM each time. Besides, the TGI in the assay on NCI-H23 lung, in the assay with SW-620 colon, in the assay on HCC-2998 colon and in the assay with HOP-62 NSCLC was > 100 µM in each case.
As for `COC(=O)C12C3C=CC(O3)C1C1C=CC2O1` (stereo unspecified), the TGI in the assay with SK-MEL-28 melanoma, in the assay on SK-MEL-2 melanoma, in the assay on NCI-H522 lung, with RXF 393 renal, in the assay on MOLT-4 leukemia and with SF-268 CNS was > 100 µM each time. In addition, the TGI in the assay with NCI-H23 lung, in the assay on SW-620 colon and with HCC-2998 colon was > 100 µM in each case.
For the molecule `Cn1cc(-c2nonc2-c2cn(C)c3ccc(Br)cc23)c2ccccc21`, the GI50 in the assay on SK-MEL-28 melanoma was > 100 µM; in the assay on SK-MEL-2 melanoma it was 3.36 µM; in the assay with NCI-H522 lung it was 3.01 µM; with RXF 393 renal it was 1.99 µM; with SF-268 CNS, 5.79 µM; in the assay on NCI-H23 lung it was 4.72 µM. Also, the GI50 with SW-620 colon is 2.53 µM; in the assay on HCC-2998 colon, 5.45 µM; in the assay with HOP-62 NSCLC it was 5.51 µM. Besides, the TGI in the assay with SK-MEL-28 melanoma was > 100 µM; with SK-MEL-2 melanoma, > 100 µM; in the assay with NCI-H522 lung it was > 100 µM; in the assay with RXF 393 renal, 5.46 µM; with SF-268 CNS, > 100 µM; in the assay on NCI-H23 lung, > 100 µM. For the same molecule, the TGI in the assay on SW-620 colon, in the assay with HCC-2998 colon and with HOP-62 NSCLC was > 100 µM each time.
With `Fc1cccc(C=NC23CC4CC(CC(C4)C2)C3)c1`, the TGI in the assay on SK-MEL-28 melanoma, in the assay on SK-MEL-2 melanoma, in the assay with NCI-H522 lung, in the assay on RXF 393 renal, in the assay on MOLT-4 leukemia and in the assay on SF-268 CNS was > 100 µM in each case. Besides, the TGI in the assay on NCI-H23 lung, in the assay on HCC-2998 colon and with HOP-62 NSCLC was > 100 µM throughout.
On to `COc1ccc(C(=O)Nc2ccccc2)cc1[N+](=O)[O-]`, for which the TGI with SK-MEL-28 melanoma, in the assay with SK-MEL-2 melanoma, in the assay with NCI-H522 lung, with RXF 393 renal, in the assay on MOLT-4 leukemia and with SF-268 CNS was > 100 µM throughout. Besides, the TGI with NCI-H23 lung, in the assay with SW-620 colon and in the assay on HOP-62 NSCLC was > 100 µM each time.
On to `Nc1ccc(C(=O)O)c2[nH]c3ccccc3c(=O)c12`, for which the TGI with SK-MEL-2 melanoma, in the assay with NCI-H522 lung, with RXF 393 renal, in the assay with MOLT-4 leukemia, in the assay on SF-268 CNS and in the assay on SW-620 colon was > 100 µM each time. Further, the TGI with HCC-2998 colon and in the assay with HOP-62 NSCLC was > 100 µM in each case.
For the molecule `O=C(NCCS(=O)(=O)N1C(=O)C2CCCN2C(=O)[C@@H]1Cc1ccccc1)OCc1ccccc1` (stereo partly specified), the TGI with SK-MEL-28 melanoma, with NCI-H522 lung, with RXF 393 renal, in the assay on MOLT-4 leukemia, with SF-268 CNS and in the assay on NCI-H23 lung was > 100 µM in each case. The figures for the TGI in the assay with SW-620 colon, with HCC-2998 colon and with HOP-62 NSCLC were > 100 µM, 73.2 µM and > 100 µM, respectively.
As for `O=C1NCC2=C1CCC1c3ccccc3CCN21` (stereo unspecified), the TGI in the assay with SK-MEL-28 melanoma, in the assay on SK-MEL-2 melanoma, in the assay on NCI-H522 lung, with RXF 393 renal, in the assay on MOLT-4 leukemia and in the assay with SF-268 CNS was > 100 µM throughout. Further, the TGI in the assay on NCI-H23 lung, with SW-620 colon and in the assay with HCC-2998 colon was > 100 µM in each case.
As for `CC1(C)OCC(C2OC(On3nnc4ccc(Cl)cc43)C3OC(C)(C)OC23)O1` (stereo unspecified), the TGI with SK-MEL-28 melanoma, in the assay on SK-MEL-2 melanoma, in the assay with NCI-H522 lung, with RXF 393 renal, in the assay on MOLT-4 leukemia and in the assay with SF-268 CNS was > 100 µM each time. For the same molecule, the TGI with NCI-H23 lung, with SW-620 colon and in the assay on HOP-62 NSCLC was > 100 µM throughout.
